Reference: PubChem BioAssay (NCI)
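Results reflect a 48-hour exposure of cells in 96-well plates to compound at five concentrations. GI50 is the concentration that inhibits growth by half. Definition used: TGI = concentration required for complete inhibition of growth.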

Key:
Assay in all cases: NCI anticancer screen, dose series, 48 h
MCF7 breast = system: MCF7 breast
A549 NSCLC = system: A549 NSCLC
TK-10 renal = system: TK-10 renal
UACC-257 melanoma = system: UACC-257 melanoma
COLO 205 colon = system: COLO 205 colon
T-47D breast = system: T-47D breast
SW-620 colon = system: SW-620 colon
LOX IMVI melanoma = system: LOX IMVI melanoma
NCI-H226 lung = system: NCI-H226 lung
MDA-MB-231 breast = system: MDA-MB-231 breast
HCT-116 colon = system: HCT-116 colon
SK-MEL-2 melanoma = system: SK-MEL-2 melanoma
SNB-19 CNS = system: SNB-19 CNS
RXF 393 renal = system: RXF 393 renal
MDA-MB-435 = system: MDA-MB-435
U251 CNS = system: U251 CNS
SF-268 CNS = system: SF-268 CNS
HCT-15 colon = system: HCT-15 colon
K-562 leukemia = system: K-562 leukemia
UACC-62 melanoma = system: UACC-62 melanoma
NCI-H23 lung = system: NCI-H23 lung
UO-31 renal = system: UO-31 renal
ACHN renal = system: ACHN renal
HOP-62 NSCLC = system: HOP-62 NSCLC
SK-OV-3 ovarian = system: SK-OV-3 ovarian
IGROV1 ovarian = system: IGROV1 ovarian
BT-549 breast = system: BT-549 breast
RPMI-8226 leukemia = system: RPMI-8226 leukemia
NCI-H460 lung = system: NCI-H460 lung
SK-MEL-28 melanoma = system: SK-MEL-28 melanoma
HOP-92 NSCLC = system: HOP-92 NSCLC
HS 578T breast = system: HS 578T breast
EKVX NSCLC = system: EKVX NSCLC
OVCAR-8 ovarian = system: OVCAR-8 ovarian
SF-539 CNS = system: SF-539 CNS
OVCAR-5 ovarian = system: OVCAR-5 ovarian
OVCAR-3 ovarian = system: OVCAR-3 ovarian
NCI-H522 lung = system: NCI-H522 lung
SK-MEL-5 melanoma = system: SK-MEL-5 melanoma
OVCAR-4 ovarian = system: OVCAR-4 ovarian
CCRF-CEM leukemia = system: CCRF-CEM leukemia
A498 renal = system: A498 renal
MOLT-4 leukemia = system: MOLT-4 leukemia
M14 melanoma = system: M14 melanoma
CAKI-1 renal = system: CAKI-1 renal
NCI/ADR-RES ovarian = system: NCI/ADR-RES ovarian
SNB-75 CNS = system: SNB-75 CNS
KM12 colon = system: KM12 colon
SF-295 CNS = system: SF-295 CNS
SR leukemia = system: SR leukemia
HCC-2998 colon = system: HCC-2998 colon
HL-60(TB) leukemia = system: HL-60(TB) leukemia
HT29 colon = system: HT29 colon
786-0 renal = system: 786-0 renal
PC-3 prostate = system: PC-3 prostate
SN12C renal = system: SN12C renal
DU-145 prostate = system: DU-145 prostate
MALME-3M melanoma = system: MALME-3M melanoma

## Cn1cc(-c2csc(-c3c[nH]c4ccc(F)cc34)n2)c2cccnc21
MCF7 breast
  GI50: 1.69 µM
  TGI: > 68.4 µM
A549 NSCLC
  GI50: 1.09 µM
  TGI: > 45.4 µM
TK-10 renal
  GI50: 5.08 µM
  TGI: 31.6 µM
UACC-257 melanoma
  GI50: 3.81 µM
  TGI: > 100 µM
COLO 205 colon
  GI50: 1.22 µM
  TGI: > 56.4 µM
T-47D breast
  GI50: 2.33 µM
  TGI: > 73.2 µM
SW-620 colon
  GI50: 0.749 µM
  TGI: > 100 µM
LOX IMVI melanoma
  GI50: 1.45 µM
  TGI: > 100 µM
NCI-H226 lung
  GI50: 5.22 µM
  TGI: > 100 µM
MDA-MB-231 breast
  GI50: 5.79 µM
  TGI: > 100 µM
HCT-116 colon
  GI50: 0.729 µM
  TGI: > 100 µM
SK-MEL-2 melanoma
  GI50: 2.78 µM
  TGI: > 29.5 µM
SNB-19 CNS
  GI50: 6.25 µM
  TGI: 65.7 µM
RXF 393 renal
  GI50: 5.65 µM
  TGI: > 70.5 µM
MDA-MB-435
  GI50: 0.194 µM
  TGI: 0.586 µM
U251 CNS
  GI50: 1.52 µM
  TGI: 17 µM
SF-268 CNS
  GI50: 7.73 µM
  TGI: > 93.6 µM
HCT-15 colon
  GI50: 0.737 µM
  TGI: > 100 µM
K-562 leukemia
  GI50: 0.416 µM
  TGI: > 100 µM
UACC-62 melanoma
  GI50: 1.98 µM
  TGI: > 100 µM
NCI-H23 lung
  GI50: 11.9 µM
  TGI: > 100 µM
UO-31 renal
  GI50: 5.37 µM
  TGI: 32.2 µM
ACHN renal
  GI50: 8.87 µM
  TGI: > 100 µM
HOP-62 NSCLC
  GI50: 3.11 µM
  TGI: 35.2 µM
SK-OV-3 ovarian
  GI50: 10.5 µM
  TGI: > 74.8 µM
IGROV1 ovarian
  GI50: 0.804 µM
  TGI: > 39.9 µM
BT-549 breast
  TGI: > 100 µM
RPMI-8226 leukemia
  GI50: > 25.4 µM
  TGI: > 100 µM
NCI-H460 lung
  GI50: 0.612 µM
  TGI: > 47.4 µM
SK-MEL-28 melanoma
  GI50: 11.4 µM
  TGI: > 100 µM
HOP-92 NSCLC
  GI50: 4.25 µM
  TGI: > 48.9 µM
HS 578T breast
  GI50: > 56.6 µM
  TGI: > 100 µM
EKVX NSCLC
  GI50: 8.87 µM
  TGI: > 100 µM
OVCAR-8 ovarian
  GI50: 2.99 µM
  TGI: 47.3 µM
SF-539 CNS
  GI50: 5.41 µM
  TGI: > 59.5 µM
OVCAR-5 ovarian
  GI50: > 69.3 µM
  TGI: > 100 µM
OVCAR-3 ovarian
  GI50: 0.62 µM
  TGI: 17.5 µM
NCI-H522 lung
  GI50: 0.463 µM
  TGI: 14.7 µM
SK-MEL-5 melanoma
  GI50: 1.27 µM
  TGI: > 45.3 µM
OVCAR-4 ovarian
  GI50: 12.3 µM
  TGI: > 100 µM
CCRF-CEM leukemia
  GI50: 6.26 µM
  TGI: > 100 µM
A498 renal
  GI50: 18.6 µM
  TGI: > 100 µM
MOLT-4 leukemia
  GI50: 10.6 µM
  TGI: > 100 µM
M14 melanoma
  GI50: 0.787 µM
  TGI: > 100 µM
CAKI-1 renal
  GI50: 1.42 µM
  TGI: > 60.8 µM
NCI/ADR-RES ovarian
  GI50: 0.45 µM
  TGI: > 100 µM
SNB-75 CNS
  GI50: 2.61 µM
  TGI: 40 µM
KM12 colon
  GI50: 0.704 µM
  TGI: > 100 µM
SF-295 CNS
  GI50: 0.755 µM
  TGI: 27 µM
SR leukemia
  GI50: 0.57 µM
  TGI: > 81.2 µM
HCC-2998 colon
  GI50: 21.9 µM
  TGI: > 100 µM
HL-60(TB) leukemia
  GI50: 5.85 µM
  TGI: > 100 µM
HT29 colon
  GI50: 0.355 µM
  TGI: 3.66 µM
786-0 renal
  GI50: 13.9 µM
  TGI: > 68.4 µM
PC-3 prostate
  GI50: 6.94 µM
  TGI: > 60.3 µM
SN12C renal
  GI50: 10.8 µM
  TGI: > 100 µM
DU-145 prostate
  GI50: 14.3 µM
  TGI: > 100 µM
MALME-3M melanoma
  GI50: 0.236 µM
  TGI: 8.35 µM
